According to patent publication US20240239767A1 (AstraZeneca AB, priority 2022, published 2024):

Columns and labels:
[1] = target: T1, potassium ion channel hERG (human Ether-á-go-go-Related Gene) (Homo sapiens, UniProt Q12809); experiment: Assay 5 - hERG assay (SyncroPatch 384PE patch clamp, CHO cells); assay type: cell-based; settings: geometric mean, CHO cells over-expressing hERG, read-out: Assay 5 (hERG Hu CHO IF EPh CR-Syncro) GMean IC50
T1 construct: expressed in transfected cells; host or cells: Chinese hamster ovary K1 (CHO)
T1 sequence (Q12809 whole entry): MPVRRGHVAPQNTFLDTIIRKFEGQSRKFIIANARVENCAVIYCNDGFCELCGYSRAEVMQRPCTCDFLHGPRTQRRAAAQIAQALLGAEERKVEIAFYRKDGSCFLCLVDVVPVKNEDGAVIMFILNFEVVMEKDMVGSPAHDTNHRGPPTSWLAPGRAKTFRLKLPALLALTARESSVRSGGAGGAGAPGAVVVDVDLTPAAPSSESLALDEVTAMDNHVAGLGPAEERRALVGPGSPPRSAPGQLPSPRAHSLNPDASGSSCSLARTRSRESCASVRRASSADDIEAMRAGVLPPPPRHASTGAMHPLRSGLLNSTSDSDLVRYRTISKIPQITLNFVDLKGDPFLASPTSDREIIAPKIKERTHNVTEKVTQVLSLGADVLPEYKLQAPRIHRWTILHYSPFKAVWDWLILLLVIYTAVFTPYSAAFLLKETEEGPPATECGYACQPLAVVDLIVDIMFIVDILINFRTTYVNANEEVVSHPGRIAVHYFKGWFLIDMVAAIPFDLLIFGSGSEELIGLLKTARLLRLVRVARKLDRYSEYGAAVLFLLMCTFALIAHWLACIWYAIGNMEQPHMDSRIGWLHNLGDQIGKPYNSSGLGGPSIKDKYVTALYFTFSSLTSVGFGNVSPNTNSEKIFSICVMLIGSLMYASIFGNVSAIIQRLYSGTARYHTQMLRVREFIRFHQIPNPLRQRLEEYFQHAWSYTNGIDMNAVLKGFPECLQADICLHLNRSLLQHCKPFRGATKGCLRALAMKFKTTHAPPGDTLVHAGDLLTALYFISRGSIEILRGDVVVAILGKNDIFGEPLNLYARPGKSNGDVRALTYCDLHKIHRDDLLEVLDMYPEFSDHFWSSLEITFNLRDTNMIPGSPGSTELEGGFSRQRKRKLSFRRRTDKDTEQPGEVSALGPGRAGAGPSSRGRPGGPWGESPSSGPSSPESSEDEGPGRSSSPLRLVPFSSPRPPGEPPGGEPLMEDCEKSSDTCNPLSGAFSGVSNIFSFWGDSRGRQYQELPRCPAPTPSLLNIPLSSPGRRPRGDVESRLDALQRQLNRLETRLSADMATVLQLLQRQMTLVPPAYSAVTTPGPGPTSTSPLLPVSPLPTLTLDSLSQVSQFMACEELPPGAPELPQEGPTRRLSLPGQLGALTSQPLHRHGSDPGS
Outline: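 Automated whole-cell patch clamp at room temperature on CHO-K1 cells over-expressing hERG, using K-fluoride/escin internal solution (pH 7.2) and NMDG-containing external solution (pH 7.4). Compounds were tested in a 6-point cumulative format, 0.33% final DMSO. Wells accepted only with seal >30 MegaOhm, Z′>0.4 and current >0.2 nA.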

[2] = target: GSK3b (Glycogen synthase kinase-3 beta) (Homo sapiens, UniProt P49841); experiment: Assay 6 - GSK3b assay (ThermoFisher, FRET Z-Lyte); assay type: biochemical; settings: geometric mean; ATP Conc: 10.000 μM; read-out: Assay 6 (GSK3B FRET-Z-Lyte CR) GMean IC50 (μM) ATP Conc: 10.000
Sequence of GSK3b (Glycogen synthase kinase-3 beta) (P49841 whole entry): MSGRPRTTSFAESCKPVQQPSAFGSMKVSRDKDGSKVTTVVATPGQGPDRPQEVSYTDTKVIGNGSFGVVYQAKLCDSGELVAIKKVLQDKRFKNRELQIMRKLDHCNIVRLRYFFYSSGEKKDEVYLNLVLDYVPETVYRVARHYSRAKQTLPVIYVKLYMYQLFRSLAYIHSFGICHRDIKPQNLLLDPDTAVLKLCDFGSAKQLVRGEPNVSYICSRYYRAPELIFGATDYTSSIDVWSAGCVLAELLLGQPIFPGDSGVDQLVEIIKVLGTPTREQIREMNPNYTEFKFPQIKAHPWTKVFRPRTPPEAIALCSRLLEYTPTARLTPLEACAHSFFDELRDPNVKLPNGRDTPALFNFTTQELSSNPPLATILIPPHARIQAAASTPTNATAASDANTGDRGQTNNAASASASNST
Outline: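 Z-Lyte FRET kinase assay: 0.22-0.92 ng GSK3β with 2 μM Ser/Thr 09 peptide in 50 mM HEPES pH 7.5, 10 mM MgCl2, 1 mM EGTA, 0.01% BRIJ-35, 60 min at room temperature, then 60 min development. Compounds in 1% DMSO, 10-point 3-fold dilutions from 10 μM; sigmoidal dose-response fit.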

PCSK9 [3] = target: T2, PCSK9 (Homo sapiens, UniProt Q8NBP7, G670E/V474I); experiment: cell-based
Target sequence in this assay (Q8NBP7 31-152): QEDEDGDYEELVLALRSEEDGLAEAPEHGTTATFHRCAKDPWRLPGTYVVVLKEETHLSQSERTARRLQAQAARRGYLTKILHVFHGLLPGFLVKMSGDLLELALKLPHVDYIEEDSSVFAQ
Target sequence in this assay (Q8NBP7 153-692 V474I/G670E): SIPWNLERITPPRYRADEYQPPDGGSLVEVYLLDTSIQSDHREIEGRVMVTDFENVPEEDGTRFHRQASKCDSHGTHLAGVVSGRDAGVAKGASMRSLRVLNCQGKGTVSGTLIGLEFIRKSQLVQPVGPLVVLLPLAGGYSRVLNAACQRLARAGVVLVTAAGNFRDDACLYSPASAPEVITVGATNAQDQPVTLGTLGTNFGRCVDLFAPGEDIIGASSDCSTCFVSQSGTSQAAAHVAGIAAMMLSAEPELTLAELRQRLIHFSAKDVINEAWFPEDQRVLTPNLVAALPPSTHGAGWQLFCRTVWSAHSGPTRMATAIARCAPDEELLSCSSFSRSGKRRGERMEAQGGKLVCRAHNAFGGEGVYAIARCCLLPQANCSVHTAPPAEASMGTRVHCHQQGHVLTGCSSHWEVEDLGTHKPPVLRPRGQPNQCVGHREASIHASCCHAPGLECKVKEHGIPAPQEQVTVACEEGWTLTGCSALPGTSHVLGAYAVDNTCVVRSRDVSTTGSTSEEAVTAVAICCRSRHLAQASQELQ

PCSK9 [4] = target: T2, PCSK9; experiment: biochemical
Target sequence in this assay (Q8NBP7 with tags, fused parts or gaps V474I/G670E): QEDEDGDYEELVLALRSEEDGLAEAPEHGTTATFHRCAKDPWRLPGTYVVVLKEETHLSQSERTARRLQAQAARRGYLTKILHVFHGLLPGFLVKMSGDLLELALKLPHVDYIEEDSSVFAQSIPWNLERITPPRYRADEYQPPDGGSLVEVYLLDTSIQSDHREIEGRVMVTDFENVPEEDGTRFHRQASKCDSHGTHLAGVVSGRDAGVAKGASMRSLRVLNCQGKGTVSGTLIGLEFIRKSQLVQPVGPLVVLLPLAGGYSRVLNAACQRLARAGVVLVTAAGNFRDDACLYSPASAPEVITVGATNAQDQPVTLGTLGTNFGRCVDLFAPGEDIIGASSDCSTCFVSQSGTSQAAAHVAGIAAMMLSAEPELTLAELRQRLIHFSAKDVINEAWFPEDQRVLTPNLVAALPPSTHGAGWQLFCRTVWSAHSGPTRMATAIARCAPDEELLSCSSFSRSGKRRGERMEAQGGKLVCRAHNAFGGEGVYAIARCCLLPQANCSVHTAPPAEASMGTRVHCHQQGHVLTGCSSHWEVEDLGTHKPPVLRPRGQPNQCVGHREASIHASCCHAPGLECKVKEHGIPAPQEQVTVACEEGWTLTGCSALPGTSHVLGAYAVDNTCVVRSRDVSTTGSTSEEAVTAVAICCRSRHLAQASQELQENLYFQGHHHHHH

SMILES	IC50 [1] [nM]	IC50 [2] [µM]	IC50 (PCSK9 [3]) [nM]	IC50 (PCSK9 [4]) [nM]
COc1cccn(-c2ccc(N[C@H]3CC[C@H](Nc4nc5cccnc5[nH]4)C3)nc2)c1=O [Example 41, 6′-(((1S,3S)-3-((3H-Imidazo[4,5-b]pyridin-2-yl)amino)cyclopentyl)amino)-3-methoxy-2H-[1,3′-bipyridin]-2-one]	> 40000	0.066	186	3.5
O=c1c(Cl)cccn1-c1ccc(N[C@H]2CC[C@H](Nc3nc4cccnc4[nH]3)C2)nc1 [Example 42, 6′-(((1S,3S)-3-((3H-Imidazo[4,5-b]pyridin-2-yl)amino)cyclopentyl)amino)-3-chloro-2H-[1,3′-bipyridin]-2-one]	> 40000	6.14	77	0.9
N#Cc1ccc(=O)n(-c2ccc(N[C@H]3CC[C@H](Nc4nc5cccnc5[nH]4)C3)nc2)c1 [Example 43, 6′-(((1S,3S)-3-((3H-Imidazo[4,5-b]pyridin-2-yl)amino)cyclopentyl)amino)-2-oxo-2H-[1,3′-bipyridine]-5-carbonitrile]	> 40000	> 10	200	4.2
O=c1ccccn1-c1ccc(N[C@H]2CC[C@H](Nc3nc4cc(Cl)cnc4[nH]3)C2)nc1 [Example 47, 6′-(((1S,3S)-3-((6-Chloro-3H-imidazo[4,5-b]pyridin-2-yl)amino)cyclopentyl)amino)-2H-[1,3′-bipyridin]-2-one]	> 40000	0.331	64	1.6
O=c1ccccn1-c1ccc(N[C@H]2CC[C@H](Nc3nc4cc(F)cnc4[nH]3)C2)nc1 [Example 48, 6′-(((1S,3S)-3-((6-Fluoro-3H-imidazo[4,5-b]pyridin-2-yl)amino)cyclopentyl)amino)-2H-[1,3′-bipyridin]-2-one]	> 40000	0.805	100	2.1
Cc1cnc2[nH]c(N[C@H]3CC[C@H](Nc4ccc(-n5ccccc5=O)cn4)C3)nc2c1 [Example 49, 6′-(((1S,3S)-3-((6-Methyl-3H-imidazo[4,5-b]pyridin-2-yl)amino)cyclopentyl)amino)-2H-[1,3′-bipyridin]-2-one]	> 40000	5.59	43	2.8
O=c1ccccn1-c1ccc(N[C@H]2CC[C@H](Nc3nc4c(Cl)c(Cl)cnc4[nH]3)C2)nc1 [Example 50, 6′-(((1S,3S)-3-((6,7-Dichloro-3H-imidazo[4,5-b]pyridin-2-yl)amino)cyclopentyl)amino)-2H-[1,3′-bipyridin]-2-one]	32000	0.024	190	10.5
O=c1ccccn1-c1ccc(N[C@H]2CC[C@H](Nc3nc4cc(OC(F)(F)F)cnc4[nH]3)C2)nc1 [Example 51, 6′-(((1S,3S)-3-((6-(Trifluoromethoxy)-3H-imidazo[4,5-b]pyridin-2-yl)amino)cyclopentyl)amino)-2H-[1,3′-bipyridin]-2-one]	30000	1.52	49	2.5
Cc1ncc(-c2ccc(=O)n(-c3ccc(N[C@H]4CC[C@H](Nc5nc6cc(Br)cnc6[nH]5)C4)nc3)c2)cn1 [Example 52, 6′-(((1S,3S)-3-((6-Bromo-3H-imidazo[4,5-b]pyridin-2-yl)amino)cyclopentyl)amino)-5-(2-methylpyrimidin-5-yl)-2H-[1,3′-bipyridin]-2-one]	> 40000	0.178	590	4.5
O=c1ccccn1-c1ccc(N[C@H]2CC[C@H](Nc3nc4cc(Br)cnc4[nH]3)C2)nc1 [Example 54, 6′-(((1S,3S)-3-((6-Bromo-3H-imidazo[4,5-b]pyridin-2-yl)amino)cyclopentyl)amino)-2H-[1,3′-bipyridin]-2-one]	> 40100	0.306	41	0.7
CCc1cnc2[nH]c(N[C@H]3CC[C@H](Nc4ccc(-n5ccccc5=O)cn4)C3)nc2c1 [Example 56, 6′-(((1S,3S)-3-((6-Ethyl-3H-imidazo[4,5-b]pyridin-2-yl)amino)cyclopentyl)amino)-2H-[1,3′-bipyridin]-2-one]	> 40000	3.13	395	3.1
COc1cnc2[nH]c(N[C@H]3CC[C@H](Nc4ccc(-n5ccccc5=O)cn4)C3)nc2c1 [Example 57, 6′-(((1S,3S)-3-((6-Methoxy-3H-imidazo[4,5-b]pyridin-2-yl)amino)cyclopentyl)amino)-2H-[1,3′-bipyridin]-2-one]	> 40000	5.45	66	4.3
CSc1cnc2[nH]c(N[C@H]3CC[C@H](Nc4ccc(-n5ccccc5=O)cn4)C3)nc2c1 [Example 59, 6′-(((1S,3S)-3-((6-(Methylthio)-3H-imidazo[4,5-b]pyridin-2-yl)amino)cyclopentyl)amino)-2H-[1,3′-bipyridin]-2-one]	> 13500	0.794	106	3.7
O=c1ccccn1-c1ccc(N[C@H]2CC[C@H](Nc3nc4cc(C(F)(F)F)cnc4[nH]3)C2)nc1 [Example 62, 6′-(((1S,3S)-3-((6-(Trifluoromethyl)-3H-imidazo[4,5-b]pyridin-2-yl)amino)cyclopentyl)amino)-2H-[1,3′-bipyridin]-2-one]	> 40000	0.153	89	2.2
O=c1c(OC(F)(F)F)cccn1-c1ccc(N[C@H]2CC[C@H](Nc3nc4cccnc4[nH]3)C2)nc1 [Example 63, 6′-(((1S,3S)-3-((3H-Imidazo[4,5-b]pyridin-2-yl)amino)cyclopentyl)amino)-3-(trifluoromethoxy)-2H-[1,3′-bipyridin]-2-one]	> 40000	> 10	51	2.1
O=c1c(C(F)(F)F)cccn1-c1ccc(N[C@H]2CC[C@H](Nc3nc4cccnc4[nH]3)C2)nc1 [Example 64, 6′-(((1S,3S)-3-((3H-Imidazo[4,5-b]pyridin-2-yl)amino)cyclopentyl)amino)-3-(trifluoromethyl)-2H-[1,3′-bipyridin]-2-one]	> 40000	> 10	99	1.7
O=c1ccc(Cl)cn1-c1ccc(N[C@H]2CC[C@H](Nc3nc4cccnc4[nH]3)C2)nc1 [Example 71, 6′-(((1S,3S)-3-((3H-Imidazo[4,5-b]pyridin-2-yl)amino)cyclopentyl)amino)-5-chloro-2H-[1,3′-bipyridin]-2-one]	> 40000	2.83	123	2.6
COc1ccc(=O)n(-c2ccc(N[C@H]3CC[C@H](Nc4nc5cccnc5[nH]4)C3)nc2)c1 [Example 72, 6′-(((1S,3S)-3-((3H-Imidazo[4,5-b]pyridin-2-yl)amino)cyclopentyl)amino)-5-methoxy-2H-[1,3′-bipyridin]-2-one]	> 40000	0.01	163	5
O=c1ccc(OC(F)F)cn1-c1ccc(N[C@H]2CC[C@H](Nc3nc4cccnc4s3)C2)nc1 [Example 77, 5-(Difluoromethoxy)-6′-(((1S,3S)-3-(thiazolo[5,4-b]pyridin-2-ylamino)cyclopentyl)amino)-2H-[1,3′-bipyridin]-2-one]	10400	4.72	204	4.2
